Experimental data reported in patent US12090164B2, “Genotype-agnostic rescue of cystic fibrosis with small molecule bicarbonate channels” (The Board of Trustees of the University of Illinois, priority 2017, dated 2024).
“Also recorded” adds a separate entry of the source.

How the values were obtained:
[1] = Na+, K+, Cl-, H+ efflux from liposomes; type: biochemical; settings: 1:1000 AmB:lipid, vs DMSO vehicle
Method: Palmitoyl oleoyl phosphatidylcholine (POPC) was obtained as a 25 mg/mL solution in CHCl3 from Avanti Polar Lipids (Alabaster, AL) and was stored at −20° C. under an atmosphere of dry argon and used within 3 months. Cholesterol (Sigma Aldrich) was purified by recrystallization from ethanol. NaH^13CO3 was obtained as a white solid from Sigma Aldrich. Sodium, potassium, and chloride measurements were obtained using a Denver Instruments (Denver, CO) Model 225 pH meter equipped with the appropriate ion selective probe inside a Faraday cage. Sodium selective measurements were obtained using an Orion micro sodium electrode (Thermo 9811BN). Potassium selective measurements were obtained with an Orion Potassium Sure-Flow Combination Electrode with Waterproof BNC connector (Thermo 9719BNWP). Chloride selective measurements were obtained using an Orion combination chloride electrode (Thermo 9617BNWP). For sodium efflux experiments, measurements were made on 1.5 mL solutions that were magnetically stirred in 7 mL vials incubated at 23° C. […]
Prior to preparing a lipid film, this solution was warmed to ambient temperature to prevent condensation from contaminating the solution and degrading the lipid film. […] To obtain a sufficient quantity of large unilamellar vesicles (LUVs), at least two independent lipid film preparations were pooled together for the subsequent formation of LUVs. […]

[2] = system: CuFi-1 (ΔF508/ΔF508) epithelia; assay: Basolateral to apical H14CO3- transport; type: cell-based, human
Method: (§1) Small diameter NuLi and CuFi cultured epithelia were used for this experiment (0.33 cm^2). ^14C-labeled sodium HCO3^− was obtained as a sterile 35.7 mM aqueous solution pH 9.5 (MP Biomedicals 0117441H). All experiments were run less than 2 months post seeding. Fresh USG media was added to the basolateral side prior to experimentation. The apical membrane was treated with 20 μL of vehicle, AmB, or ivacaftor/forskolin as a suspension in perfluorocarbon-72 (Sigma Aldrich), and the cultured epithelia were incubated for 48 hours, 7 days, 14 days, or 28 days at 37° C. in a 5% C02 atmosphere. After the end of the treatment period, 5 μL of a 1.4 mM H^14CO3^− stock solution in USG media was added to the basolateral media. The cultured epithelia were then incubated at 37° C. for 10 minutes. After 10 minutes, the apical membrane of the cultured epithelia was immediately washed with 200 μL of PBS. The ASL wash and a 200 μL aliquot of the basolateral media were diluted in scintillation cocktail and analyzed via liquid scintillation counting (23).

[3] = system: CuFi-4 (G551D/ΔF508) epithelia; assay: Basolateral to apical H14CO3- transport; type: cell-based, human; settings: AmB 2 μM, ivacaftor/forskolin 10 μM
Method: as §1

[4] = system: primary cultured human CF epithelia; assay: ASL viscosity (FITC-dextran FRAP); type: cell-based; settings: AmB 2 μM, 48 h
Method: ASL viscosity in airway epithelial cultures was determined (7, 25). Small diameter primary cultured epithelia were used for this experiment (0.33 cm^2). The apical surface was not washed for at least 2 weeks before study. Cultured epithelia were treated with 2 µM AmB administered in perfluorocarbon (FC-72, Sigma) for 48 hours. FITC-dextran (70 kD, Sigma) was then administered to the apical surface of epithelia as a dry powder 2 hrs before measurement of viscosity. FRAP was assayed in a humidified chamber at 37° C. using a Zeiss LSM 510 μMETA microscope. Images were acquired until maximal recovery was reached. At least 6 recovery curves from different locations in each culture were acquired and averaged to obtain data for one epithelial culture. The time constant […] was calculated by regression analysis from fluorescence recovery curves. Viscosity is expressed relative to the time constant of saline (τASL/τsaline).

CuFi-1 epithelia = assay: Transepithelial electrical resistance (Rt); type: cell-based, human; settings: vehicle, 2 uM or 50 uM AmB, extended timeframes
Method: Small diameter CuFi-1 cultured epithelia were used for this experiment (0.33 cm^2) Cultured epithelia were treated with FC-72 vehicle, 2 and 50 μM AmB administered in perfluorocarbon (FC-72, Sigma) for 48 hours, 7 days, or 28 days. 200 μL of fresh USG media was placed on the apical side of the epithelia. Transepithelial electrical resistance (Rt) was then measured using a Millicell® ERS-2 Voltohmmeter across the apical and basolateral sides of the epithelia in a snaking pattern for two technical replicates per biological replicate.

C[C@@H]1[C@H](O)[C@@H](C)/C=C/C=C/C=C/C=C/C=C/C=C/C=C/[C@H](O[C@@H]2O[C@H](C)[C@@H](O)[C@H](N)[C@@H]2O)C[C@@H]2O[C@](O)(C[C@@H](O)C[C@@H](O)[C@H](O)CC[C@@H](O)C[C@@H](O)CC(=O)O[C@H]1C)C[C@H](O)[C@H]2C(=O)O [AmB, amphotericin B]
transport of potassium, sodium, chloride, protons across a lipid membrane [1]: known to transport monovalent anions and cations; also recorded: can transport potassium, sodium, chloride, protons and HCO3^− | time for which increase in H^14CO3^− secretion is sustained ([2]; AmB 2 μM left on epithelia): at least 7 days | basolateral to apical H^14CO3^− transport, apical addition ([2]; over 10 minutes, AmB or C35deOAmB 2 μM, ivacaftor/forskolin 10 μM): restored normal bicarbonate transport; also recorded: increased the rate of ^14C bicarbonate to match that observed in NuLi epithelia; also recorded: effective in both genotypes; also recorded: increased both | H^14CO3^− transepithelial transport [3]: increase H^14CO3-transepithelial transport; also recorded: effective in both genotypes; also recorded: the same increase in rate of bicarbonate efflux; also recorded: increased ASL pH and H^14CO3^− secretion | ASL viscosity (τASL/τsaline) [4]: decreased ASL viscosity across a wide range of patient genotypes | average magnitude of viscosity reduction [4]: ~1.5 units | membrane integrity / transepithelial electrical resistance (Rt) (CuFi-1 epithelia): did not disrupt membrane integrity; also recorded: no difference in transepithelial electrical resistance; also recorded: did not differ between treatment with vehicle or increasing doses of AmB
